US20250057823A1, “COMPOSITION FOR IMPROVING CARDIAC FUNCTION” (Kyoto University, priority 2021, published 2025)
Entries after “also recorded” stand apart in the source; their conditions may differ. Structures can show the parent of a compound that is named as a salt.

Key:
Assay type in all cases: in vivo
[1] = test system: mouse models of pressure overload-induced cardiac hypertrophy/heart failure (TAC); experiment: Mouse models of TAC heart failure during cardiac hypertrophic phase
Procedure: (§1) Transverse aortic constriction (TAC) was performed as described previously [Date, et al. (2002) The antioxidant N-2-mercaptopropionyl glycine attenuates left ventricular hypertrophy in in vivo murine pressure-overload model. J Am Coll Cardiol 39: 907-912.]. Briefly, 8- to 10-week-old mice were anesthetized with anesthetic (0.3 mg/kg of medetomidine, 4.0 mg/kg of midazolam, and 5.0 mg/kg of butorphanol) administered intraperitoneally, and the proximal portion of the sternum was cut open to visualize the aorta. A 7-0 silk suture was placed around the aortic arch distal to the brachiocephalic artery. The suture was tightened firmly around a blunt 26-gauge needle placed adjacent to the aorta. The needle was then removed, and the chest and overlying skin were closed. Sham-operated mice underwent an identical surgical procedure without ligation of the aortic arch. At the end of the operation, 0.3 mg/kg of atipamezole was administered subcutaneously to reverse medetomidine. FIG. 1 is a schematic diagram of TAC.
(§2) Total RNA was reverse transcribed by blend primer of random hexamers and oligo-dT 3:1 (volume/volume) using Verso™ cDNA Synthesis Kit (Thermo Fisher Scientific, AB1453A) in accordance with the manufacturer's protocol, and the cDNA was analyzed by qRT-PCR. qRT-PCR measurements used THUNDERBIRD SYBR qPCR Mix (TOYOBO) in accordance with the manufacturer's instructions. Expression levels of messenger RNAs (mRNAs) were normalized by the indicated housekeeping genes, and calculated by the 2^−ΔΔCt method. All analyses were performed using a StepOnePlus real-time PCR system and StepOne Software v2.3 (Applied Biosystems, Inc).
Wheat Germ Agglutinin (WGA) Staining and the Quantification Paraffin-embedded ventricular short-axis sections were stained with FITC-conjugated lectin (Sigma, L4895). Images were captured by Axio Observer7 (Zeiss). Cardiomyocyte cross-sectional area measurement was performed using ImageJ64 software (NIH). Approximately 150-200 cells were measured per heart, and averages were used for the analysis.
(§3) To analyze the cardiac function, we used Vevo® 2100 (VISUALSONICS) at the indicated time points after TAC operation. Mice were kept under inhalation anesthesia with 2.5% isoflurane. LV function was measured in M mode of the parasternal short-axis view.
Mouse models of pressure overload-induced cardiac hypertrophy/heart failure were prepared by TAC and were injected intraperitoneally with 50 mg/kg of KUS121 daily for 2 weeks starting immediately after TAC. Sham-operated mice and control mice were injected with 5% glucose. Two weeks after TAC, echocardiography was performed, then the mice were sacrificed, the body weight and heart weight were measured, and heart samples were collected.

TAC mice = experiment: Acute effect on mouse models of heart failure (TAC, single injection 5 weeks later)
Procedure: as §1, §3
Mice were subjected to TAC at 8 weeks of age. Five weeks later (at 13 weeks of age), the mice were injected with KUS121 (50 mg/kg), and left ventricular ejection fraction (LVEF), left ventricular end-diastolic diameter (LVDd), and heart rate (HR) were assessed by echocardiography before and 10 minutes after the injection.
Mice were subjected to TAC at 8 weeks of age. Five weeks later (at 13 weeks of age), the mice were injected with KUS121 (50 mg/kg), and left ventricular pressure was measured by catheterization before and 10 minutes after the injection. The left ventricular pressure was 46.6 mmHg before KUS121 administration, and increased to 128.9 mmHg 10 minutes after the administration. In addition, Max/min dp/dt was changed from 1295.5/−621.4 mmHg/s to 3972.8/−1311.1 mmHg/s. […] Left ventricular ejection fraction was then measured over time and was 37% before KUS121 administration, increased to 67% 5 minutes after the administration, and returned to the baseline about 2 hours after the administration (FIG. 16).
Mice were subjected to TAC at 8 weeks of age. Five weeks later (at 13 weeks of age), the mice were injected with KUS187 (50 mg/kg), and left ventricular ejection fraction was assessed by echocardiography before and 10 minutes after the injection.

[2] = test system: mouse models of pressure overload-induced cardiac hypertrophy/heart failure (TAC); experiment: Mouse models of TAC heart failure during heart failure phase; settings: 50 mg/kg i.p. daily for 3 weeks starting 5 weeks after TAC
Procedure: as §1, §2
Tissues were fixed with 4% paraformaldehyde, dehydrated with 70% ethanol, and then embedded in paraffin. Deparaffinized sections were stained with hematoxylin solution for cell nucleus, and stained with eosin solution for cytoplasm. Images were captured by Axio Observer7 (Zeiss). Cardiomyocyte cross-sectional area measurement was performed using ImageJ64 software (NIH). Approximately 150-200 cells were measured per heart, and averages were used for the analysis.
As described above, deparaffinized sections were stained with hematoxylin solution for cell nucleus, Masson solution for cytoplasm, and aniline blue for collagen fiber. Images were captured by a microscopy (BZ-9000, Keyence). Aniline blue-stained regions were measured using ImageJ64 software (NIH).
as §3
Mouse models of pressure overload-induced cardiac hypertrophy/heart failure were prepared by TAC and were injected intraperitoneally with 50 mg/kg of KUS121 daily for 3 weeks starting 5 weeks after TAC. Sham-operated mice and control mice were injected with 5% glucose. Echocardiography was performed 5 weeks and 8 weeks after TAC. Eight weeks after TAC, the mice were sacrificed, the body weight and heart weight were measured, and heart samples were collected.

[3] = test system: mouse models of pressure overload-induced cardiac hypertrophy/heart failure (TAC); experiment: Mouse models of pressure overload-induced (TAC) heart failure during acute phase; settings: TAC mice, 50 mg/kg i.p. immediately after TAC, three hours later
Procedure: as §1
To extract total RNA, tissue samples were homogenized using a polytron homogenizer in 1 mL of TriPure reagent (Sigma-Aldrich), and the total RNA was extracted in accordance with the manufacture's protocol. Total RNA extracted from cells was also isolated using 1 mL of TriPure reagent. The quantity and quality of total RNA were determined using a NanoDrop™2000 spectrophotometer (Thermo Scientific).
as §2, with “Inc). […]” for “Inc).”

[4] = TAC mice, 50 mg/kg i.p. daily for 2 weeks starting immediately after TAC
[5] = echocardiography two weeks after TAC, 50 mg/kg i.p. daily
[6] = heart tissue, qRT-PCR, 50 mg/kg i.p. daily for 2 weeks after TAC
[7] = TAC mice 5 weeks after TAC, 50 mg/kg, echocardiography before and 10 minutes after injection

For `Cc1cc(F)ccc1-c1ccc(/N=N/c2cc(S(=O)(=O)O)c3ccccc3c2N)cn1` [KUS121, 4-amino-3-[6-(4-fluoro-2-methylphenyl)pyridine-3-ylazo]naphthalene-1-sulfonic acid sodium salt], the “cardiomyocyte cross-sectional area (WGA staining)” value [1, 4] was “suppressed the increase”, the heart weight [1, 4] was “suppressed the increases” and the “ratio of heart weight to body weight” value [1, 4] was “suppressed the increases”. For the same compound, the “interventricular septum diameter at end-diastole (IVSd)” value [1, 5] was “suppressed both”, the “left ventricular ejection fraction (LVEF)” value [1, 5] was “did not significantly suppress the decrease” and the left ventricular mass [1, 5] was “suppressed both”. For the same compound, the “mRNA levels of cardiac hypertrophy markers (BNP and ANF)” value [1, 6] was “suppressed the increases”, the “mRNA levels of endoplasmic reticulum stress markers (Bip, CHOP, and VCP)” value [1, 6] was “not significantly affected” and the “left ventricular ejection fraction” value (TAC mice; 5 minutes after 50 mg/kg, 37% before administration) was 67%. The “heart rate (HR)” value (TAC mice; TAC mice 5 weeks after TAC, 50 mg/kg, before and 10 minutes after injection, sodium salt, 50 mg/kg) was “without significantly affecting heart rate; also recorded: without affecting HR”, the “left ventricular ejection fraction (LVEF)” value (TAC mice; [7]) was “Recoveries” and the “left ventricular end-diastolic diameter (LVDd)” value (TAC mice; [7]) was “Recoveries”. The “time after administration at which left ventricular ejection fraction returned to the baseline” value (TAC mice; TAC mice, 50 mg/kg, LVEF measured over time) was “about 2 hours”, the left ventricular pressure (TAC mice; catheterization, 10 minutes after 50 mg/kg, 46.6 mmHg before administration) was 128.9 mmHg and the Max dp/dt (TAC mice; catheterization, 10 minutes after 50 mg/kg, 1295.5 mmHg/s before administration) was 3972.8 mmHg/s. For the same compound, the min dp/dt (TAC mice; catheterization, 10 minutes after 50 mg/kg, −621.4 mmHg/s before administration) was −1311.1 mmHg/s, the cardiomyocyte cross-sectional area ([2]; TAC mice) was “suppressed it” and the “fibrotic area in Masson's trichrome-stained heart” value ([2]; TAC mice) was “suppressed”. For the same compound, the heart weight ([2]; TAC mice, 8 weeks after TAC) was “suppressed the increase in heart weight”, the “left ventricular systolic dysfunction (LVEF, echocardiography)” value ([2]; TAC mice, 8 weeks after TAC) was “suppressed the dysfunction” and the “mRNA level of Col1a1 (cardiac fibrosis marker)” value ([2]; heart, qRT-PCR) was “suppressed”. The “mRNA level of Postn (cardiac fibrosis marker)” value ([2]; heart, qRT-PCR) was “suppressed”, the “mRNA level of VCP” value ([2]; heart, qRT-PCR) was “increased the mRNA level of VCP” and the “mRNA levels of ANF, BNP, CHOP and Bip (other cardiac hypertrophy and endoplasmic reticulum stress markers)” value ([2]; heart, qRT-PCR) was “did not significantly affect the other mRNA levels”. The “ratio of heart weight to body weight” value [3] was “not significantly affected”, the “mRNA level of BNP” value ([3]; vs 5% glucose control) was “suppressed the increases” and the “ratio of lung weight to body weight” value ([3]; vs 5% glucose control) was “suppressed the increases”.
